Square brackets hold non-standard residues; d marks the D form. Peptide text beside a SMILES is read from it. Trp(3S-Ph) = N[C@H](C(=O)O)[C@@H](c1ccccc1)c1c[nH]c2ccccc12; Trp(βR-Ph) = N[C@H](C(=O)O)[C@H](c1ccccc1)c1c[nH]c2ccccc12; d2Nal = N[C@H](Cc1ccc2ccccc2c1)C(=O)O; dBta = N[C@H](Cc1csc2ccccc12)C(=O)O; Inp = O=C(O)C1CCNCC1
Biological target: ghrelin receptor (Homo sapiens, UniProt Q92847)
Experiment: IP-One assay
Format: cell-based
Settings: for EC50 / E max [Δ%]: SEM; for E max [Δ%]: difference between constitutive activity and maximal effect, mean±SEM of >=2 independent experiments; for potency loss relative to ghrelin: IP-One assay, COS7 cells with ghrelin receptor
[1] = normalized to KbFwLL-NH2 (15) (inverse agonists and 13)
[2] = normalized to ghrelin (5) efficacy (ghrelin analogues and multiple modified agonists)

ghrelin receptor, sequence (Q92847 whole entry): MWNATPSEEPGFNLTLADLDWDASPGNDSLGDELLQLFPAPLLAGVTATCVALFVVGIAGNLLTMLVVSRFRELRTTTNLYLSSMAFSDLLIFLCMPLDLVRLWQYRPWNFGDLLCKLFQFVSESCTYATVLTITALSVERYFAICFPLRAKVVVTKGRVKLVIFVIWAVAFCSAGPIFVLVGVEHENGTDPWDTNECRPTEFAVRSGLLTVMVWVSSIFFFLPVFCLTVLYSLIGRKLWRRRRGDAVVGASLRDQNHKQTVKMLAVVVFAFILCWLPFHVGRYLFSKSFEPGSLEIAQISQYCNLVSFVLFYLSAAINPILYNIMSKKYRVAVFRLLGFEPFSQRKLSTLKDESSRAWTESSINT

SMILES | EC50 | E max [Δ%] [1] | E max [Δ%] [2] | potency loss relative to ghrelin
CC(C)C[C@H](NC(=O)[C@H](CC(C)C)NC(=O)[C@@H](NC(=O)[C@H](Cc1ccccc1)NC(=O)[C@@H](Cc1c[nH]c2ccccc12)NC(=O)[C@@H](N)CCCCN)[C@H](c1ccccc1)c1c[nH]c2ccccc12)C(N)=O [Peptide 13, KwF‐Wrf‐LL‐NH2] | 912 nM | 39±3 Δ% | – | –
C[C@H](N)C(=O)N[C@H](Cc1c[nH]c2ccccc12)C(=O)N[C@@H](Cc1ccccc1)C(=O)N[C@H](Cc1ccc2ccccc2c1)C(=O)N1CCC(C(N)=O)CC1 [Peptide 18, AwFn‐Isn‐NH2, reference compound] (H-A[dW]F[d2Nal][Inp]-NH2; N-terminus assumed) | 16.6 nM | – | 110±6 Δ% | –
CC(C)C[C@H](NC(=O)[C@H](CC(C)C)NC(=O)[C@@H](Cc1c[nH]c2ccccc12)NC(=O)[C@H](Cc1ccccc1)NC(=O)[C@@H](Cc1c[nH]c2ccccc12)NC(=O)[C@@H](N)CCCCN)C(N)=O [Peptide 8, KwFwLL‐NH2, reference compound] | 182 nM | 66±3 Δ% | – | –
CC(C)C[C@H](NC(=O)[C@H](CC(C)C)NC(=O)[C@@H](Cc1c[nH]c2ccccc12)NC(=O)[C@@H](NC(=O)[C@@H](Cc1c[nH]c2ccccc12)NC(=O)[C@@H](N)CCCCN)[C@@H](c1ccccc1)c1c[nH]c2ccccc12)C(N)=O [Peptide 12, Kw‐Wsf‐wLL‐NH2] (H-K[dW][Trp(3S-Ph)][dW]LL-NH2; N-terminus assumed) | 282 nM | 77±4 Δ% | – | –
CCCCCCCC(=O)OC[C@H](NC(=O)[C@H](CO)NC(=O)CN)C(=O)N[C@H](C(=O)N[C@@H](CC(C)C)C(=O)N[C@@H](CO)C(=O)N1CCC[C@H]1C(=O)N[C@@H](CCC(=O)O)C(=O)N[C@@H](Cc1c[nH]cn1)C(=O)N[C@@H](CCC(N)=O)C(=O)N[C@@H](CCCNC(=N)N)C(=O)N[C@H](C(=O)N[C@@H](CCC(N)=O)C(=O)N[C@@H](CCC(N)=O)C(=O)N[C@@H](CCCNC(=N)N)C(=O)N[C@@H](CCCCN)C(=O)N[C@@H](CCC(=O)O)C(=O)N[C@@H](CO)C(=O)N[C@@H](CCCCN)C(=O)N[C@@H](CCCCN)C(=O)N1CCC[C@H]1C(=O)N1CCC[C@H]1C(=O)N[C@@H](C)C(=O)N[C@@H](CCCCN)C(=O)N[C@@H](CC(C)C)C(=O)N[C@@H](CCC(N)=O)C(=O)N1CCC[C@H]1C(=O)N[C@@H](CCCNC(=N)N)C(=O)O)C(C)C)[C@@H](c1ccccc1)c1c[nH]c2ccccc12 [Peptide 7, Wsf^4‐ghrelin] | 33.9 nM | – | 96±2 Δ% | about 12 fold
CC(C)C[C@H](NC(=O)[C@H](CC(C)C)NC(=O)[C@@H](Cc1c[nH]c2ccccc12)NC(=O)[C@H](Cc1ccccc1)NC(=O)[C@@H](NC(=O)[C@@H](N)CCCCN)[C@H](c1ccccc1)c1c[nH]c2ccccc12)C(N)=O [Peptide 9, K‐Wrf‐FwLL‐NH2] | – | 72±2 Δ% | – | –
CCCCCCCC(=O)OC[C@H](NC(=O)[C@H](CO)NC(=O)CN)C(=O)N[C@H](C(=O)N[C@@H](CC(C)C)C(=O)N[C@@H](CO)C(=O)N1CCC[C@H]1C(=O)N[C@@H](CCC(=O)O)C(=O)N[C@@H](Cc1c[nH]cn1)C(=O)N[C@@H](CCC(N)=O)C(=O)N[C@@H](CCCNC(=N)N)C(=O)N[C@H](C(=O)N[C@@H](CCC(N)=O)C(=O)N[C@@H](CCC(N)=O)C(=O)N[C@@H](CCCNC(=N)N)C(=O)N[C@@H](CCCCN)C(=O)N[C@@H](CCC(=O)O)C(=O)N[C@@H](CO)C(=O)N[C@@H](CCCCN)C(=O)N[C@@H](CCCCN)C(=O)N1CCC[C@H]1C(=O)N1CCC[C@H]1C(=O)N[C@@H](C)C(=O)N[C@@H](CCCCN)C(=O)N[C@@H](CC(C)C)C(=O)N[C@@H](CCC(N)=O)C(=O)N1CCC[C@H]1C(=O)N[C@@H](CCCNC(=N)N)C(=O)O)C(C)C)[C@H](c1ccccc1)c1c[nH]c2ccccc12 [Peptide 6, Wrf^4‐ghrelin] | 32.4 nM | – | 98±2 Δ% | about 12 fold
C[C@H](N)C(=O)N[C@H](Cc1c[nH]c2ccccc12)C(=O)N[C@@H](Cc1ccccc1)C(=O)N[C@H](C(=O)N1CCC(C(N)=O)CC1)[C@@H](c1ccccc1)c1c[nH]c2ccccc12 [Peptide 21, AwF‐Wsf‐Isn‐NH2] (H-A[dW]F[Trp(3S-Ph)][Inp]-NH2; N-terminus assumed) | 83.2 nM | – | 95±2 Δ% | –
C[C@H](N)C(=O)N[C@H](Cc1c[nH]c2ccccc12)C(=O)N[C@@H](Cc1ccccc1)C(=O)N[C@H](C(=O)N1CCC(C(N)=O)CC1)[C@H](c1ccccc1)c1c[nH]c2ccccc12 [Peptide 20, AwF‐Wrf‐Isn‐NH2] (H-A[dW]F[Trp(βR-Ph)][Inp]-NH2; N-terminus assumed) | 27.5 nM | – | 105±3 Δ% | –
CC(C)C[C@H](NC(=O)[C@H](CC(C)C)NC(=O)[C@@H](Cc1c[nH]c2ccccc12)NC(=O)[C@@H](NC(=O)[C@@H](Cc1c[nH]c2ccccc12)NC(=O)[C@@H](N)CCCCN)[C@H](c1ccccc1)c1c[nH]c2ccccc12)C(N)=O [Peptide 11, Kw‐Wrf‐wLL‐NH2] (H-K[dW][Trp(βR-Ph)][dW]LL-NH2; N-terminus assumed) | 148 nM | 55±4 Δ% | – | –
CC(C)C[C@H](NC(=O)[C@H](CC(C)C)NC(=O)[C@@H](Cc1c[nH]c2ccccc12)NC(=O)[C@@H](NC(=O)[C@@H](Cc1csc2ccccc12)NC(=O)[C@@H](N)CCCCN)[C@H](c1ccccc1)c1c[nH]c2ccccc12)C(N)=O [Peptide 16, Kb‐Wrf‐wLL‐NH2] (H-K[dBta][Trp(βR-Ph)][dW]LL-NH2; N-terminus assumed) | 550 nM | 56±3 Δ% | – | –
